Assay results: patent publication US9840513B2 (AbbVie S.à.r.l., priority 2015, dated 2017)

Target: T1, F508delCFTR cell surface expression in CFBE41o-F508delCFTR-HRP cells (Homo sapiens, UniProt P13569, DEL508-508)
T1 construct: fused on or other part: Horseradish peroxidase (HRP) reporter inserted in the fourth exofacial (extracellular) loop of CFTR; expression is doxycycline-inducible
Experiment: Cell Surface Expression-Horse Radish Peroxidase (CSE-HRP) Assay
Type: cell-based
Conditions: for EC50: CFBE41o-F508delCFTR-HRP cells, 18-24 hours at 33° C., 8-point curve, highest concentration 20 μM; for Maximum % activity (%): maximum at any tested concentration, normalized to on-plate positive control (3 μM)
Method in brief: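 Correctors incubated 18-24 h at 33 °C on doxycycline-induced (0.5 μg/mL, 72 h) CFBE41o-F508delCFTR-HRP cells, 3-fold series from 20 μM. After DPBS washes, luminol luminescence read; activity expressed relative to DMSO and a 3 μM positive control, EC50 fitted from triplicate plates.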

T1 sequence (P13569 with tags, fused parts or gaps DEL508-508 limits assumed): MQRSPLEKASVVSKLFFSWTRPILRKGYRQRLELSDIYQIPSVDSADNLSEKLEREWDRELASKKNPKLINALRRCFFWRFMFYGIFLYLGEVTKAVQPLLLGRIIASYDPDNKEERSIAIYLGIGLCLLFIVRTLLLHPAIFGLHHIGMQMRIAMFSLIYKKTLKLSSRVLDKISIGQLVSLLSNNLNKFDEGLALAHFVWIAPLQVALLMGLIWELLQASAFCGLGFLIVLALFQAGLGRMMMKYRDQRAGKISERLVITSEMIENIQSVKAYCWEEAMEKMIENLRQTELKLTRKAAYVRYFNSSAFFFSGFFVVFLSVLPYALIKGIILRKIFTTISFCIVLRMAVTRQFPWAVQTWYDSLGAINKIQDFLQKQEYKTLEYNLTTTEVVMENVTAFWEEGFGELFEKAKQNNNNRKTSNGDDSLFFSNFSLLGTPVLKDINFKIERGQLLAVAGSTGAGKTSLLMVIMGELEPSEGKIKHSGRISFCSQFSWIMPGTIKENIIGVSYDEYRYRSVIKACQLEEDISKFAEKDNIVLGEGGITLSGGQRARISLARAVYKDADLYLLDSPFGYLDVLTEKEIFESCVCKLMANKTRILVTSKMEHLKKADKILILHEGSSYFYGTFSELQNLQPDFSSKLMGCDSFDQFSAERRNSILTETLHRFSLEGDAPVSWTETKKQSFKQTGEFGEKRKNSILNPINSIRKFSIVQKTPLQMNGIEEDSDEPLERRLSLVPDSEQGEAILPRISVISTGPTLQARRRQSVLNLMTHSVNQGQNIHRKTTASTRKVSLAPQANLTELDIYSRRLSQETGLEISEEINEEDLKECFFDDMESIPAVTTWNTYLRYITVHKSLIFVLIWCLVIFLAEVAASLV
T1 sequence (P13569 919-1480 limits assumed, stated change not applied): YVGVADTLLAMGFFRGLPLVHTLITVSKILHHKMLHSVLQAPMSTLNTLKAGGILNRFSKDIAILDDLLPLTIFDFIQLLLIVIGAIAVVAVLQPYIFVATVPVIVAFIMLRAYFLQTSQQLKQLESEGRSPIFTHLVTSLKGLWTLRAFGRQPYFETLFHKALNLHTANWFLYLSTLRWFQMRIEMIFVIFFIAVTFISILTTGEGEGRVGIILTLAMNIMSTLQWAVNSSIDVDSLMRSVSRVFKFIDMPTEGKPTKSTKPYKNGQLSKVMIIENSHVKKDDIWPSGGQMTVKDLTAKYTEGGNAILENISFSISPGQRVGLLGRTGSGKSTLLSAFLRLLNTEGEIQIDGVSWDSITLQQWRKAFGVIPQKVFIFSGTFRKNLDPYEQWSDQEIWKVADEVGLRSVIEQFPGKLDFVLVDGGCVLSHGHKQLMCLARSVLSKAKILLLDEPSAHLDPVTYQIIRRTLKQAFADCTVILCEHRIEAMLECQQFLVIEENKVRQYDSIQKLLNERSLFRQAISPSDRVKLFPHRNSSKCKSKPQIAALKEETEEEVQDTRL

| Compound | EC50 [nM] | Maximum % activity (%) |
| --- | --- | --- |
| C[C@]1(C(=O)Nc2cc(-c3ccccc3)nn(C[C@H](O)[C@H](O)CO)c2=O)COc2cc3c(cc21)OC(F)(F)O3 [Example 105, (7R)-2,2-difluoro-7-methyl-N-{3-oxo-6-phenyl-2-[(2S,3R)-2,3,4-trihydroxybutyl]-2,3-dihydropyridazin-4-yl}-6,7-dihydro-2H-furo[2,3-f][1,3]benzodioxole-7-carboxamide] | > 20000 | 5 |
| methyl 4-[(2R,4S,6S)-4-{[(7R)-2,2-difluoro-7-methyl-6,7-dihydro-2H-furo[2,3-f][1,3]benzodioxole-7-carbonyl]amino}-6-phenyloxan-2-yl]benzoate and methyl 4-[(2S,4R,6R)-4-{[(7R)-2,2-difluoro-7-methyl-6,7-dihydro-2H-furo[2,3-f][1,3]benzodioxole-7-carbonyl]amino}-6-phenyloxan-2-yl]benzoate [Example 33] | 1180 | 131 |
| COc1ccc2c(c1)O[C@@H](c1ccc(C(=O)O)cc1)C[C@H]2NC(=O)[C@@]1(C)CCc2c1ccc1c2OCO1 [Example 42, 4-[(2R,4R)-7-methoxy-4-{[(6S)-6-methyl-7,8-dihydro-2H,6H-indeno[4,5-d][1,3]dioxole-6-carbonyl]amino}-3,4-dihydro-2H-1-benzopyran-2-yl]benzoic acid] | 1060 | 61 |
| COc1ccc2c(c1)O[C@@H](c1ccc(C(=O)NC(C)(C)CO)cn1)C[C@H]2NC(=O)[C@@]1(C)COc2cc3c(cc21)OC(F)(F)O3 [Example 215, 6-[(2R,4R)-4-{[(7R)-2,2-difluoro-7-methyl-6,7-dihydro-2H-furo[2,3-f][1,3]benzodioxole-7-carbonyl]amino}-7-methoxy-3,4-dihydro-2H-1-benzopyran-2-yl]-N-(1-hydroxy-2-methylpropan-2-yl)pyridine-3-carboxamide] | 30 | 113 |
| C[C@]1(C(=O)Nc2cc(C3CC3)nn(-c3cccc(C(=O)O)c3)c2=O)COc2cc3c(cc21)OC(F)(F)O3 [Example 29, 3-[3-cyclopropyl-5-{[(7R)-2,2-difluoro-7-methyl-6,7-dihydro-2H-furo[2,3-f][1,3]benzodioxole-7-carbonyl]amino}-6-oxopyridazin-1(6H)-yl]benzoic acid] | 1070 | 155 |
| CC(C)(O)CNC(=O)[C@H]1CC[C@H]([C@H]2C[C@@H](NC(=O)[C@@]3(C)COc4cc5c(cc43)OC(F)(F)O5)c3ccc(OC(F)(F)F)cc3O2)CC1 [Example 267, (7R)-2,2-difluoro-N-[(2R,4R)-2-{trans-4-[(2-hydroxy-2-methylpropyl)carbamoyl]cyclohexyl}-7-(trifluoromethoxy)-3,4-dihydro-2H-1-benzopyran-4-yl]-7-methyl-6,7-dihydro-2H-furo[2,3-f][1,3]benzodioxole-7-carboxamide] | 90 | 166 |
| 4-[(2R,4S,6S)-4-{[(7R)-2,2-difluoro-7-methyl-6,7-dihydro-2H-furo[2,3-f][1,3]benzodioxole-7-carbonyl]amino}-6-phenyloxan-2-yl]benzoic acid and 4-[(2S,4R,6R)-4-{[(7R)-2,2-difluoro-7-methyl-6,7-dihydro-2H-furo[2,3-f][1,3]benzodioxole-7-carbonyl]amino}-6-phenyloxan-2-yl]benzoic acid [Example 34] | 480 | 109 |
| COc1ccc2c(c1)O[C@@H](c1ccc(C(=O)O)cc1)C[C@H]2NC(=O)[C@]1(C)COc2cc3c(cc21)OC(F)(F)O3 [Example 18, 4-[(2R,4R)-4-{[(7S)-2,2-difluoro-7-methyl-6,7-dihydro-2H-furo[2,3-f][1,3]benzodioxole-7-carbonyl]amino}-7-methoxy-3,4-dihydro-2H-1-benzopyran-2-yl]benzoic acid] | 5750 | 91 |
| C[C@]1(C(=O)N[C@@H]2C[C@H]([C@H]3CC[C@H](C(=O)N(CCO)CCO)CC3)Oc3cc(OC(F)(F)F)ccc32)COc2cc3c(cc21)OC(F)(F)O3 [Example 254, (7R)—N-[(2R,4R)-2-{trans-4-[bis(2-hydroxyethyl)carbamoyl]cyclohexyl}-7-(trifluoromethoxy)-3,4-dihydro-2H-1-benzopyran-4-yl]-2,2-difluoro-7-methyl-6,7-dihydro-2H-furo[2,3-f][1,3]benzodioxole-7-carboxamide] | 80 | 136 |
| COc1ccc2c(c1)O[C@@H](COCc1ccccc1)C[C@H]2NC(=O)[C@@]1(C)COc2cc3c(cc21)OC(F)(F)O3 [Example 276, (7R)—N-{(2R,4R)-2-[(benzyloxy)methyl]-7-methoxy-3,4-dihydro-2H-1-benzopyran-4-yl}-2,2-difluoro-7-methyl-6,7-dihydro-2H-furo[2,3-f][1,3]benzodioxole-7-carboxamide] | 700 | 117 |
| C[C@]1(C(=O)N[C@@H]2C[C@H]([C@H]3CC[C@H](C(=O)N4C[C@@H](O)[C@H](O)C4)CC3)Oc3cc(OC(F)(F)F)ccc32)COc2cc3c(cc21)OC(F)(F)O3 [Example 255, (7R)—N-[(2R,4R)-2-{trans-4-[(3R,4R)-3,4-dihydroxypyrrolidine-1-carbonyl]cyclohexyl}-7-(trifluoromethoxy)-3,4-dihydro-2H-1-benzopyran-4-yl]-2,2-difluoro-7-methyl-6,7-dihydro-2H-furo[2,3-f][1,3]benzodioxole-7-carboxamide] | 90 | 158 |
| Cc1ccc(NC(=O)C2(C)COc3cc4c(cc32)OC(F)(F)O4)cc1-c1cccc(C(=O)O)c1 (stereo not drawn) [Example 60, 5′-[(2,2-difluoro-7-methyl-6,7-dihydro-2H-furo[2,3-f][1,3]benzodioxole-7-carbonyl)amino]-2′-methyl[1,1′-biphenyl]-3-carboxylic acid] | 630 | 152 |
| C[C@]1(C(=O)Nc2cc(-c3ccccc3)cn(-c3ccc(C(=O)O)cc3)c2=O)COc2cc3c(cc21)OC(F)(F)O3 [Example 99, 4-[3-{[(7R)-2,2-difluoro-7-methyl-6,7-dihydro-2H-furo[2,3-f][1,3]benzodioxole-7-carbonyl]amino}-2-oxo-5-phenylpyridin-1(2H)-yl]benzoic acid] | 230 | 71 |
| COc1ccc2c(c1)O[C@@H](c1ccc(C(=O)N3CCC(F)(F)CC3)cc1)C[C@H]2NC(=O)[C@@]1(C)COc2cc3c(cc21)OC(F)(F)O3 [Example 223, (7R)—N-{(2R,4R)-2-[4-(4,4-difluoropiperidine-1-carbonyl)phenyl]-7-methoxy-3,4-dihydro-2H-1-benzopyran-4-yl}-2,2-difluoro-7-methyl-6,7-dihydro-2H-furo[2,3-f][1,3]benzodioxole-7-carboxamide] | 70 | 157 |
| C[C@]1(C(=O)Nc2cc3cc(C4(CO)CCOCC4)n(C[C@@H](O)CO)c3cc2F)COc2cc3c(cc21)OC(F)(F)O3 [Example 170, (7R)—N-{1-[(2R)-2,3-dihydroxypropyl]-6-fluoro-2-[4-(hydroxymethyl)oxan-4-yl]-1H-indol-5-yl}-2,2-difluoro-7-methyl-6,7-dihydro-2H-furo[2,3-f][1,3]benzodioxole-7-carboxamide] | 1260 | 65 |
| COCC(CO)NC(=O)c1ccc([C@H]2C[C@@H](NC(=O)[C@@]3(C)COc4cc5c(cc43)OC(F)(F)O5)c3ccc(OC)cc3O2)nc1 (stereo partly drawn) [Example 246, 6-[(2R,4R)-4-{[(7R)-2,2-difluoro-7-methyl-6,7-dihydro-2H-furo[2,3-f][1,3]benzodioxole-7-carbonyl]amino}-7-methoxy-3,4-dihydro-2H-1-benzopyran-2-yl]-N-(1-hydroxy-3-methoxypropan-2-yl)pyridine-3-carboxamide] | 80 | 125 |
| CCOC(=O)[C@H]1CC[C@@H]([C@H]2C[C@@H](NC(=O)[C@@]3(C)COc4cc5c(cc43)OC(F)(F)O5)c3ccc(OC(F)(F)F)cc3O2)CC1 [Example 157, ethyl cis-4-[(2R,4R)-4-{[(7R)-2,2-difluoro-7-methyl-6,7-dihydro-2H-furo[2,3-f][1,3]benzodioxole-7-carbonyl]amino}-7-(trifluoromethoxy)-3,4-dihydro-2H-1-benzopyran-2-yl]cyclohexane-1-carboxylate] | 168 | 117 |
| COc1ccc2c(c1)O[C@@H](c1cccc(C(=O)O)c1)C[C@H]2NC(=O)[C@]1(C)COc2cc3c(cc21)OC(F)(F)O3 [Example 13, 3-[(2R,4R)-4-{[(7S)-2,2-difluoro-7-methyl-6,7-dihydro-2H-furo[2,3-f][1,3]benzodioxole-7-carbonyl]amino}-7-methoxy-3,4-dihydro-2H-1-benzopyran-2-yl]benzoic acid] | 8810 | 72 |
| O=C(O)c1ccc([C@@H]2C[C@H](NC(=O)C3(c4ccc5c(c4)OC(F)(F)O5)CC3)c3ccccc3N2)cc1 (single isomer, unassigned) [Example 48] | 2770 | 27 |
| CC1(C(=O)Nc2ccc(N3CC(C(=O)O)C3)cc2)COc2cc3c(cc21)OC(F)(F)O3 (stereo not drawn) [Example 61, 1-{4-[(2,2-difluoro-7-methyl-6,7-dihydro-2H-furo[2,3-f][1,3]benzodioxole-7-carbonyl)amino]phenyl}azetidine-3-carboxylic acid] | > 20000 | 8 |
| (7R)—N-(6-{[2R)-2,3-dihydroxypropyl]amino}pyridin-2-yl)-2,2-difluoro-7-methyl-6,7-dihydro-2H-furo[2,3-f][1,3]benzodioxole-7-carboxamide [Example 92] | 1720 | 98 |
